Data published in patent US6420630B1, “Methods for tissue culturing and transforming elite inbreds of Zea mays L” (Stine Biotechnology, priority 1998, dated 2002).

What was measured:
[1] = tested on: immature embryos of Stine inbred 963; test: Type II callus initiation from cultured immature embryos (embryos responding); format: cell-based, Zea mays L.; details: sugar at 10 g/l in combination with 20 g/l sucrose, N6A medium
Protocol: Plants of the elite corn inbred Stine 963 were grown under controlled conditions, either in a grow room or in a greenhouse. Plants were exposed throughout growth to a 16 h photoperiod with a daytime temperature of around 30° C. and a nighttime temperature of around 25° C. Plants were selfed and after approximately 10 days ears were harvested. At this time the immature embryos were on average between 1.0 and 2.0 mm in length. Usually the ears were then placed at 4° for two days prior to immature embryo excision. The response on standard […] media (Table 1) for inducing Type II callus was variable and appeared to be dependent on the physiological state of the donor plant. The frequency of Type II callus ranged from 0% up to 95%, with an average of around 40%. Immature embryos were excised with a view to using them as targets for Agrobacterium-mediated DNA delivery. For this work a reproducible and high frequency response is required and improvement in these aspects was therefore desirable. The protocol used for introduction of DNA mediated by Agrobacterium was based on that described by Hei and Komari (1997). The co-cultivation medium in this protocol (LSAS-Table 1) contains glucose, intended presumably as a carbon source for Agrobacterium. After close observation of immature embryos on LSAS medium it was thought worthwhile to check for the effects of glucose on culture initiation and subsequent development. 10 g/l of glucose was therefore added to […] medium. This medium was subsequently referred to as […] (Table 1). […] Various other sugars were tested in this regard (see Table 3) and some are capable of supporting an increased rate of Type II callus initiation (especially maltose, lactose, sorbitol and mannitol). None of those tested, however, were as efficient as glucose in stimulating Type II callus formation on […] medium. All sugars were tested at 10 g/l in combination with 20 g/l sucrose.

Agrobacterium = test: Control of Agrobacterium growth on culture media after co-cultivation; format: cell-based, Agrobacterium tumefaciens; details: for control of Agrobacterium growth: first 19 day culture period after co-cultivation
Description: Agrobacterium strain LBA 4404 harboring “super binary” vectors as described in U.S. patent Hei and Komari (1997) was used in corn transformation experiments. […] The gus expression cassette contains an intron in the N-terminal region of the gus gene which prevents expression in bacteria, but upon expression in plant cells the intron is spliced out and Gus activity is achieved (Ohta et al., 1990; Ishida et al., 1996). Agrobacterium containing “super binary” vectors were stored in glycerol stocks using acidified glycerol. Glycerol was acidified by adding 15 drops of 1 M HCl to one liter of glycerol (Sigma G-9012). Final glycerol concentration of stocks was 15 to 20% and stocks were frozen at minus 86° C. When glycerol stocks were used as the source for transformation experiments, Agrobacterium was made ready for transformation experiments by removing a few flakes of frozen culture with a sterile loop, streaking it out on YP medium (5 g/l yeast extract, 10 g/l peptone, 5 g/l NaCl, and 15 g/l agar) containing 50 mg/l spectinomycin, and incubating it for one or two days at 28° C. When glycerol stocks were not used as the source, Agrobacterium maintained on YP plus spectinomycin at 4° C. was used to initiate new cultures of Agrobacterium that were grown as described above.
Therefore, a lower level of cefotaxime was tested in the presence of silver nitrate to see if embryo response and subsequent clone recovery could be improved. […] The clones were then transferred to DN62B (Table 4) for growth and further selection prior to regeneration.

Compound	Embryo Response [1]	also measured
O=C(CO)[C@@H](O)[C@H](O)[C@H](O)CO [Fructose]	<50%	–
O=C[C@H](O)[C@@H](O)[C@H](O)CO [Xylose]	<50%	–
OC[C@H]1O[C@H](O[C@H]2O[C@H](CO)[C@@H](O)[C@H](O)[C@H]2O)[C@H](O)[C@@H](O)[C@@H]1O [Trehalose]	<50%	–
O=[N+]([O-])[O-].[Ag+] [silver nitrate]	–	Agrobacterium growth (Agrobacterium; media containing silver nitrate): inhibited
OC[C@H]1O[C@H](OCC2O[C@@H](O)[C@H](O)[C@@H](O)[C@@H]2O)[C@H](O)[C@@H](O)[C@H]1O (stereo partly shown) [Mellibiose]	<50%	–
OC[C@H]1O[C@H](OC[C@H]2O[C@H](O[C@]3(CO)O[C@H](CO)[C@@H](O)[C@@H]3O)[C@H](O)[C@@H](O)[C@@H]2O)[C@H](O)[C@@H](O)[C@H]1O [Raffinose]	<50%	–
CO/N=C(\C(=O)N[C@@H]1C(=O)N2C(C(=O)O)=C(COC(C)=O)CS[C@H]12)c1csc(N)n1 [cefotaxime]	–	control of Agrobacterium growth (Agrobacterium; 10 mg/l cefotaxime in presence of silver nitrate): not; control of Agrobacterium growth (Agrobacterium; 50 mg/l cefotaxime in presence of silver nitrate): Adequate control of Agrobacterium growth
O=C[C@H](O)[C@@H](O)[C@@H](O)[C@H](O)CO [Galactose]	<30%	–
O=C[C@H](O)[C@@H](O)[C@H](O[C@@H]1O[C@H](CO)[C@@H](O)[C@H](O)[C@H]1O)[C@H](O)CO [Cellobiose]	<50%	–
